The values below come from PMC8769378, “Underlining the Importance of Peripheral Protic Functional Groups to Enhance the Proton Exchange of Gd-Based MRI Contrast Agents” (Inorganic Chemistry, 2021).

This series is described as follows: Stability and protonation constants of Cu^II complexes by spectrophotometry. The class given is physicochemical. On the procedure:
The stability constants of CuL2 were determined by spectrophotometry studying the Cu^2+–L2 systems at the absorption band of Cu^2+ complexes at [H^+] = […] in the wavelength range 210–350 nm. The concentrations of Cu^2+ and L2 were 0.72 mM. The H^+ concentration in the samples was adjusted with the addition of calculated amounts of 3 M HCl. (I = [Na^+] + [H^+] = 0.15, [H^+] ≤ 0.15 M). The samples were kept at 25 °C for 1 week. The absorbance values of the samples were determined at 11 wavelengths (260, 269, 278, 287, 296, 305, 314, 323, 332, 341, and 350 nm). For the calculations of the stability and protonation constants of the […], the molar absorptivities of CuCl2, CuL2, Cu(HL2), Cu(H2L2), and Cu(H3L2) were determined by recording the spectra of 1.0 × 10^–3, 3.0 × 10^–4, 6.0 × 10^–4, and 9.0 × 10^–4 M solutions of CuCl2 and CuL2 in the pH range 1.7–7.5. The pH was adjusted by stepwise addition of concentrated NaOH or HCl solutions. The spectrophotometric measurements were made with the use of a PerkinElmer Lambda 365 UV–vis spectrophotometer at 25 °C, using 1.0 cm cells. The protonation and stability constants were calculated with the PSEQUAD program.[35]
The stability and protonation constants of CaII-, ZnII-, CuII- and GdIII-complexes of L2, expressed by Eqs. (S2) and (S3), were determined by pH-potentiometry and spectrophotometry at 25 °C in 0.15 M […]
where i=0, 1, 2, 3. The KML and KMHiL values of CaII-, ZnII- and CuII-L2 complexes were calculated from the pH-potentiometric titration data obtained at 1:1 metal to ligand concentration ratios. In the calculations, the best fitting of the mL NaOH – pH data was obtained by assuming the formation of […]
ML, MHL, MH2L and MH3L species. […]
– pH data of the “out-of-cell” samples, which had equilibrium pH values in the range of 2.0 – 4.0.
For the complete characterization of the Gd3+-L2 system, the GdL2 complex (which is formed completely at about pH=3.5) was titrated with 0.2 M NaOH solution in the pH range 3.5 – 12.0.
(also on this page, place not known: MH 2L H3L w as derivative s “out -of-cage” *Ln(H 2DOTA)), groups , Ln III-ion donor s . Ln III system. 11,12 th out -of-cage * KGd(H2L) Gd 3+ - ligand 2. 0 Gd 3+-L2 GdL 2 is pH= 3.5) M pH ]L][M[ ]ML[K ML = ]H][LMH[ ]LMH[K 1i i LMHi + − = ]LH][Ln[ )]LH(Ln[K 2 3 2 )LH(Ln 2 + * =) […]
the deprotonation of the Gd(HL) and GdL species, respectively. […]
By taking into account the protonation constants of the ligand L2, the stability constant of the *Gd(H2L2) intermediate and the stability and protonation constant of the GdL2 complex, the species distribution of the Gd3+ - L2 system was calculated (Figure S1). […]
Then, the stability and protonation constants of CuL2 were determined by spectrophotometry. […]

Consider `O=C(O)CN1CCN(CC(=O)O)CCN(C[C@@H](O)C(=O)O)CCN(CC(=O)O)CC1` [L2, (R)2,2′,2″-(10-(2-Carboxy-2-hydroxyethyl)-1,4,7,10-tetraazacyclododecane-1,4,7-triyl) Triacetic Acid], for which, under “0.15 M NaCl, 25 °C”, the “CuH2L (log K)” value is given as 3.36 (2); the “CuH3L (log K)” value is listed as 1.36 (8); the “CuHL (log K, protonation constant of the complex)” value was 3.84 (2). In addition, the “CuL (log K, stability constant)” value (spectrophotometry, I = [Na^+]+[H^+] = 0.15 M, [H^+] ≤ 0.15 M, 298 K) is reported as 21.87 (6).
